Key:
Assay in all cases: relative viability (nuclei count vs DMSO), 5 days (fraction); higher = more cells survive
NCI-H650 = tested on: NCI-H650
Method in brief: (§1)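 The day after seeding in 1536-well plates, lung cancer cell lines were treated by pin tool with a single drug, or with a fixed anchor-drug dose together with five library-drug doses (not always all listed) in √10 steps. After 5 days, a combined fix-and-stain solution (final 0.05% Triton X-100, 1% formaldehyde, 1 ug/ml Hoechst) was added. Nuclei counted on 4× images gave relative viability as treated counts over vehicle counts, reported as the median of duplicate plates.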

NCI-H1993 = tested on: NCI-H1993
Method in brief: as §1

NCI-H23 = tested on: NCI-H23
Method in brief: as §1

NCI-H1355 = tested on: NCI-H1355
Method in brief: as §1

LOU-NH91 = tested on: LOU-NH91
Method in brief: as §1

NCI-H460 = tested on: NCI-H460
Method in brief: as §1

NCI-H1915 = tested on: NCI-H1915
Method in brief: as §1

EKVX = tested on: EKVX
Method in brief: as §1

BEN = tested on: BEN
Method in brief: as §1

LC-2-ad = tested on: LC-2-ad
Method in brief: as §1

A-427 = tested on: A-427
Method in brief: as §1

NCI-H1793 = tested on: NCI-H1793
Method in brief: as §1

LCLC-97TM1 = tested on: LCLC-97TM1
Method in brief: as §1

NCI-H1650 = tested on: NCI-H1650
Method in brief: as §1

NCI-H1666 = tested on: NCI-H1666
Method in brief: as §1

RERF-LC-KJ = tested on: RERF-LC-KJ
Method in brief: as §1

LU99A = tested on: LU99A
Method in brief: as §1

NCI-H838 = tested on: NCI-H838
Method in brief: as §1

PC-3 [JPC-3] = tested on: PC-3 [JPC-3]
Method in brief: as §1

SW 1573 = tested on: SW 1573
Method in brief: as §1

NCI-H520 = tested on: NCI-H520
Method in brief: as §1

NCI-H2347 = tested on: NCI-H2347
Method in brief: as §1

NCI-H2228 = tested on: NCI-H2228
Method in brief: as §1

In the case of `O=c1[nH]c2ccccc2n1C1CCN(CCCC(c2ccc(F)cc2)c2ccc(F)cc2)CC1` [Pimozide] + O=C(CCCCCCC(=O)Nc1ccccc1)NO [Vorinostat] (partner 1 µM), the relative viability (NCI-H650; first compound 0.08 µM) is reported as 0.455, the relative viability (NCI-H650; first compound 0.253 µM) is reported as 0.386 and the relative viability (NCI-H650; first compound 0.8 µM) is reported as 0.399. It also gave a relative viability (NCI-H650; first compound 2.53 µM) of 0.454, a relative viability (NCI-H650; first compound 8 µM) of 0.452 and a relative viability (NCI-H1993; first compound 0.08 µM) of 0.502. For the same compound, the relative viability (NCI-H1993; first compound 0.253 µM) was 0.966, the relative viability (NCI-H1993; first compound 0.8 µM) was 0.68 and the relative viability (NCI-H1993; first compound 2.53 µM) was 0.857. For the same compound, the relative viability (NCI-H1993; first compound 8 µM) was 0.533, the relative viability (NCI-H23; first compound 0.08 µM) was 0.573 and the relative viability (NCI-H23; first compound 0.253 µM) was 0.551. For the same compound, the relative viability (NCI-H23; first compound 0.8 µM) was 0.49, the relative viability (NCI-H23; first compound 2.53 µM) was 0.575 and the relative viability (NCI-H23; first compound 8 µM) was 0.52. It also gave a relative viability (NCI-H1355; first compound 0.08 µM) of 0.592, a relative viability (NCI-H1355; first compound 0.253 µM) of 0.597 and a relative viability (NCI-H1355; first compound 0.8 µM) of 0.547. It also gave a relative viability (NCI-H1355; first compound 2.53 µM) of 0.607, a relative viability (NCI-H1355; first compound 8 µM) of 0.608 and a relative viability (LOU-NH91; first compound 0.08 µM) of 0.741. The relative viability (LOU-NH91; first compound 0.253 µM) was 0.883, the relative viability (LOU-NH91; first compound 0.8 µM) was 0.852 and the relative viability (LOU-NH91; first compound 2.53 µM) was 0.98. It also gave a relative viability (LOU-NH91; first compound 8 µM) of 0.872, a relative viability (NCI-H460; first compound 0.08 µM) of 0.727 and a relative viability (NCI-H460; first compound 0.253 µM) of 0.654. It also gave a relative viability (NCI-H460; first compound 0.8 µM) of 0.711, a relative viability (NCI-H460; first compound 2.53 µM) of 0.681 and a relative viability (NCI-H460; first compound 8 µM) of 0.664. It also gave a relative viability (NCI-H1915; first compound 0.08 µM) of 0.525, a relative viability (NCI-H1915; first compound 0.253 µM) of 0.48 and a relative viability (NCI-H1915; first compound 2.53 µM) of 0.432. The relative viability (NCI-H1915; first compound 8 µM) was 0.487, the relative viability (EKVX; first compound 0.253 µM) was 0.712 and the relative viability (EKVX; first compound 0.8 µM) was 0.601. The relative viability (EKVX; first compound 2.53 µM) was 0.812, the relative viability (EKVX; first compound 8 µM) was 0.641 and the relative viability (BEN; first compound 0.08 µM) was 0.558. It also gave a relative viability (BEN; first compound 0.253 µM) of 0.579, a relative viability (BEN; first compound 0.8 µM) of 0.607 and a relative viability (BEN; first compound 2.53 µM) of 0.601. For the same compound, the relative viability (BEN; first compound 8 µM) was 0.603, the relative viability (LC-2-ad; first compound 0.08 µM) was 0.731 and the relative viability (LC-2-ad; first compound 0.253 µM) was 0.661. For the same compound, the relative viability (LC-2-ad; first compound 0.8 µM) was 0.499, the relative viability (LC-2-ad; first compound 2.53 µM) was 0.653 and the relative viability (LC-2-ad; first compound 8 µM) was 0.655. It also gave a relative viability (A-427; first compound 0.08 µM) of 0.893, a relative viability (A-427; first compound 0.253 µM) of 0.875 and a relative viability (A-427; first compound 0.8 µM) of 0.775. For the same compound, the relative viability (A-427; first compound 2.53 µM) was 0.854, the relative viability (A-427; first compound 8 µM) was 0.815 and the relative viability (NCI-H1793; first compound 0.08 µM) was 0.642. The relative viability (NCI-H1793; first compound 0.253 µM) was 0.761, the relative viability (NCI-H1793; first compound 0.8 µM) was 0.693 and the relative viability (NCI-H1793; first compound 2.53 µM) was 0.761. It also gave a relative viability (NCI-H1793; first compound 8 µM) of 0.624, a relative viability (LCLC-97TM1; first compound 0.08 µM) of 0.753 and a relative viability (LCLC-97TM1; first compound 0.253 µM) of 0.738. It also gave a relative viability (LCLC-97TM1; first compound 0.8 µM) of 0.455, a relative viability (LCLC-97TM1; first compound 2.53 µM) of 0.526 and a relative viability (LCLC-97TM1; first compound 8 µM) of 0.584. For the same compound, the relative viability (NCI-H1650; first compound 0.08 µM) was 0.449, the relative viability (NCI-H1650; first compound 0.253 µM) was 0.571 and the relative viability (NCI-H1650; first compound 0.8 µM) was 0.687. For the same compound, the relative viability (NCI-H1650; first compound 2.53 µM) was 0.591, the relative viability (NCI-H1650; first compound 8 µM) was 0.546 and the relative viability (NCI-H1666; first compound 0.08 µM) was 1.09. It also gave a relative viability (NCI-H1666; first compound 0.253 µM) of 0.905, a relative viability (NCI-H1666; first compound 0.8 µM) of 0.924 and a relative viability (NCI-H1666; first compound 2.53 µM) of 0.991. The relative viability (NCI-H1666; first compound 8 µM) was 1.02, the relative viability (RERF-LC-KJ; first compound 0.08 µM) was 0.616 and the relative viability (RERF-LC-KJ; first compound 0.253 µM) was 0.677. The relative viability (RERF-LC-KJ; first compound 0.8 µM) was 0.612, the relative viability (RERF-LC-KJ; first compound 2.53 µM) was 0.463 and the relative viability (RERF-LC-KJ; first compound 8 µM) was 0.613. It also gave a relative viability (LU99A; first compound 0.08 µM) of 0.595, a relative viability (LU99A; first compound 0.8 µM) of 0.418 and a relative viability (LU99A; first compound 2.53 µM) of 0.5. It also gave a relative viability (LU99A; first compound 8 µM) of 0.537, a relative viability (NCI-H838; first compound 0.08 µM) of 0.745 and a relative viability (NCI-H838; first compound 0.253 µM) of 0.716. It also gave a relative viability (NCI-H838; first compound 0.8 µM) of 0.663, a relative viability (NCI-H838; first compound 2.53 µM) of 0.702 and a relative viability (NCI-H838; first compound 8 µM) of 0.705. For the same compound, the relative viability (PC-3 [JPC-3]; first compound 0.253 µM) was 0.763, the relative viability (PC-3 [JPC-3]; first compound 0.8 µM) was 0.716 and the relative viability (PC-3 [JPC-3]; first compound 2.53 µM) was 0.882. The relative viability (PC-3 [JPC-3]; first compound 8 µM) was 0.726, the relative viability (SW 1573; first compound 0.08 µM) was 0.83 and the relative viability (SW 1573; first compound 0.253 µM) was 0.63. The relative viability (SW 1573; first compound 0.8 µM) was 0.579, the relative viability (SW 1573; first compound 2.53 µM) was 0.323 and the relative viability (SW 1573; first compound 8 µM) was 0.33. It also gave a relative viability (NCI-H520; first compound 0.08 µM) of 0.727, a relative viability (NCI-H520; first compound 0.253 µM) of 0.663 and a relative viability (NCI-H520; first compound 0.8 µM) of 0.671. The relative viability (NCI-H520; first compound 2.53 µM) was 0.685, the relative viability (NCI-H520; first compound 8 µM) was 0.65 and the relative viability (NCI-H2347; first compound 0.08 µM) was 0.685. The relative viability (NCI-H2347; first compound 0.253 µM) was 0.594, the relative viability (NCI-H2347; first compound 0.8 µM) was 0.537 and the relative viability (NCI-H2347; first compound 2.53 µM) was 0.537. For the same compound, the relative viability (NCI-H2347; first compound 8 µM) was 0.492, the relative viability (NCI-H2228; first compound 0.08 µM) was 0.623 and the relative viability (NCI-H2228; first compound 0.253 µM) was 0.668. The relative viability (NCI-H2228; first compound 0.8 µM) was 0.668, the relative viability (NCI-H2228; first compound 2.53 µM) was 0.677 and the relative viability (NCI-H2228; first compound 8 µM) was 0.318.
